{"source": "patent US9943500B2", "about": "“Methods of treating topical microbial infections” (LUODA PHARMA PTY LIMITED, priority 2013, dated 2018)", "key": {"Staphylococcus aureus": {"system": "Staphylococcus aureus", "experiment": "Skin wound infection model in mice, topical ointment (Example 5)", "assay_type": "in vivo", "conditions": "LP1369 ointment 20 mg/g, 11 treatments", "description": "Preliminary studies prior to the conduct to the current study established a new method of skin infection arising from a detailed study of the models mentioned above. Briefly, study mice are anaesthetised, a patch of dorsal skin is clipped to reveal the skin and a circular area of skin is removed with a hand held punch, leaving a wound on the dorsum with a central cavity. The wound is infected with a known number of the challenge organism. Approximately four to six hours after infection, the wound is either treated topically with a vehicle formulation or an active formulation. The infected skin wound is retreated every 12 hours for a total of 11 treatments. Mice are humanely euthanased, the area of the original infected wound is dissected and removed and its bacterial content quantified by standard microbiologic tests. In this way, the change in bacterial concentration due to treatment with the active formulation can be readily determined by examining the reduction in bacterial burden compared with the vehicle control.\nFresh cultures of bacteria were grown on Sheep Blood Agar at 37° C. for 16-18 hours. […] The density of the suspension was checked by measuring absorbance at 600 nm, using a spectrophotometer with saline as a blank, to confirm the target density at a reading of approximately 0.100, consistent with a bacterial density of 2.5×10^8 CFU/ml. […]"}, "red blood cells": {"system": "red blood cells", "experiment": "Eukaryotic cell toxicity testing, erythrocyte haemolysis", "assay_type": "cell-based", "conditions": "2% blood cell solution, one hour at 37° C.", "description": "Erythrocyte haemolysis was used in order to test the toxicity of all five compounds to eukaryotic cells. Blood samples were washed using 9.1 g/L saline solution and centrifuged at 2500 rpm for 10 minutes. This process was repeated until cellular debris and partially lysed cells were removed from solution. 2 mL of the remaining blood cells were suspended in 98 mL of 9.1 g/L saline solution to produce a 2% blood cell solution, which was dispensed in 90 μL volumes into the wells of a 96 well plate. The compound solutions as well as chloramphenicol were prepared from stock solution to a concentration of 256 μg/mL (as described above). Chloramphenicol was used as a negative control for erythrocyte lysis while a ready to use solution of amphotericin B was used as a positive control. 90 μL of the compounds and controls were added to the final well in different rows. These compounds were serially diluted across the row in order to test the different concentrations of antimicrobials. Wells containing only 2% blood solution were also used to assess variation between readings from different columns on the 96 well plates. These tests were incubated at 37° C. for one hour and then assessed for lysis both visually and using a microplate reader to measure optical density at 600 nm wavelengths. Each test was performed in duplicate and then repeated in quadruplicate in order to ensure accuracy."}, "[1]": {"system": "methicillin sensitive and methicillin-resistant staphylococci", "experiment": "Minimum inhibitory concentration assay, 42 Staphylococcus isolates (Example 1)", "assay_type": "cell-based", "description": "Forty-two isolates of Staphylococcus of varying species and strain type were collected from isolate collections. Biochemical testing including coagulase, latex agglutination testing for protein A, Vogues-Proskauer tests and resistance to polymyxin B were used to identify the species of Staphylococcus. All isolates were also screened for resistance to various antimicrobials commonly used for the treatment of skin infections. This was performed using the disk diffusion method and resistance standards as outlined by the CLSI. The following antimicrobials were used: amoxicillin-clavulanic acid (30 μg), cephalothin (30 μg), clindamycin (2 μg), enrofloxacin (5 μg), erythromycin (15 μg), gentamicin (10 μg), imipenem (10 μg), oxacillin (1 μg), penicillin G (10 units), tetracycline (30 μg), 1:19 trimethoprim-sulfamethoxazole (25 μg) and vancomycin (30 μg).\nMinimum inhibitory concentration tests were performed according to CLSI Standards (CLSI 2012). 90 μL of one of the test compound solutions, or ampicillin, was added to the end column of a 96 well plate that contained 90 μL of CAMHB in each well. The solutions were then serially diluted across the row, leaving 2 columns for positive and negative controls (FIG. 2). A bacterial suspension was prepared by adding fresh colonies obtained from an overnight culture on Sheep Blood Agar (SBA) to a 9.1 g/L saline solution. This suspension was adjusted to a concentration of between 4×10^8 and 5×10^8 CFU/mL. […] 1 mL of this suspension was added to 9 mL of saline before being added to all wells, excluding the negative control wells, in 10 μL volumes giving a final concentration of between 4×10^5 and 5×10^5 CFU/mL in each well. The tests were then incubated for 24 hours at 37° C. and then assessed both visually and using OD readings from a microplate reader at a wavelength of 600 nm. These tests were performed in duplicate but repeated if discrepancies were observed.\nThe minimum inhibitory concentration (MIC) was determined to be the lowest concentration of antibiotic that prevented growth of bacteria both visually and using OD readings. Direct statistical comparisons between the test compounds and ampicillin could not be performed in light of confidential information restrictions, such as restrictions on disclosure of information relating to the compound structure, such as molecular weight. Instead, MIC values were collated and used to determine the lowest concentration of each compound that was effective against 50% and 90% of isolates, referred to as the MIC50 and MIC90 respectively. These values as well as the range of MIC values were then used for direct comparisons between test compounds and for general comparisons with ampicillin."}}, "data": [{"molecule": "CC[C@@H](C(=O)[C@@H](C)[C@@H](O)[C@H](C)CCc1ccc(C)c(O)c1C(=O)O)[C@H]1O[C@](CC)([C@H]2CC[C@](O)(CC)[C@H](C)O2)C[C@@H]1C", "note": "[LP 1369, Lasalocid]", "values": [{"measurement": "decrease in bacterial load compared to vehicle control mice", "setting": "Staphylococcus aureus", "result": "statistically significant"}, {"measurement": "reduction of the bacterial population", "setting": "Staphylococcus aureus; every 12 hours, versus vehicle", "result": "greater than 99%"}, {"measurement": "concentration at which lysis was most visually evident", "setting": "red blood cells", "result": 64000, "unit": "ng/mL"}, {"measurement": "concentration range in which some lysis of cells was observed", "setting": "red blood cells", "result": "32000 to 128000", "unit": "ng/mL"}, {"measurement": "MIC50 and MIC90 values compared with ampicillin", "setting": "[1]", "result": "considerably lower than ampicillin"}]}]}
